Measured values: paper PMC5975062 (Alzheimer's & Dementia : Translational Research & Clinical …, 2015)
“Also recorded” adds a separate entry of the source.

Columns and labels:
[1] = Phase 1 plasma pharmacokinetics after single and multiple oral doses; assay type: in vivo, human; conditions: for AUC(0-t) / half-life / Tmax: human, plasma, oral; for AUC(0-t): plasma AUC0–12 h
QC activity in serum = QC activity in serum (Homo sapiens, UniProt Q16769); conditions: after single and multiple doses
Sequence of QC activity in serum (Q16769 29-361): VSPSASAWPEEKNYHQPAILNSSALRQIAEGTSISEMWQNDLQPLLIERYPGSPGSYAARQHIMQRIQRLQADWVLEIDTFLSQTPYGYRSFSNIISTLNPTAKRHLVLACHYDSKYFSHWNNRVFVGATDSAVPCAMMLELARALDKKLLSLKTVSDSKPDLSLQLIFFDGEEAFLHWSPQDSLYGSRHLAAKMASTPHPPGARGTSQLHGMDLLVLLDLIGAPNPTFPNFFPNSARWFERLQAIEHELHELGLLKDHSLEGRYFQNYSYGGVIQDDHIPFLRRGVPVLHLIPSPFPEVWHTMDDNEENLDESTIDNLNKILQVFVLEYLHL

AUC(0-t) ([1]; 100 mg, 100 mg bid solution, fed, nonelderly, day 11, geo mean (CV%)): 969 ng·h/mL
half-life ([1]; 100 mg, plasma t1/2 (apparent terminal), 100 mg bid solution, fed, nonelderly, day 11, geo mean (CV%)): 3.46 h
half-life ([1]; 100 mg, plasma t1/2,eff (2–12 h postdose), 100 mg bid solution, fed, nonelderly, day 11, geo mean (CV%)): 2.44 h
Tmax ([1]; 100 mg, plasma tmax, 100 mg bid solution, fed, nonelderly, day 11, median (min–max)): 0.75 h
AUC(0-t) ([1]; 200 mg, 200 mg bid capsule, fasted, elderly, day 7, geo mean (CV%)): 3890 ng·h/mL
half-life ([1]; 200 mg, plasma t1/2 (apparent terminal), 200 mg bid capsule, fasted, elderly, day 7, geo mean (CV%)): 7.55 h
half-life ([1]; 200 mg, plasma t1/2,eff (2–12 h postdose), 200 mg bid capsule, fasted, elderly, day 7, geo mean (CV%)): 3.08 h
Tmax ([1]; 200 mg, plasma tmax, 200 mg bid capsule, fasted, elderly, day 7, median (min–max)): 1 h
AUC(0-t) ([1]; 500 mg, 500 mg bid capsule, fed, nonelderly, day 11, geo mean (CV%)): 9300 ng·h/mL
half-life ([1]; 500 mg, plasma t1/2 (apparent terminal), 500 mg bid capsule, fed, nonelderly, day 11, geo mean (CV%)): 6.82 h
half-life ([1]; 500 mg, plasma t1/2,eff (2–12 h postdose), 500 mg bid capsule, fed, nonelderly, day 11, geo mean (CV%)): 3.01 h
Tmax ([1]; 500 mg, plasma tmax, 500 mg bid capsule, fed, nonelderly, day 11, median (min–max)): 3 h
Tmax ([1]; mean plasma tmax, single 10–400 mg solution, fasted): 0.5 h
half-life ([1]; plasma t1/2,eff, after bid doses): 2 to 3 h
Tmax ([1]; plasma tmax, generally observed, all formulations and doses): 0.5 to 1.5 h
Tmax ([1]; plasma tmax, repeated dosing, compared with CSF): 0.5 to 1 h
half-life ([1]; terminal plasma t1/2, single doses, across dose range): 2 to 8 h
time to steady-state ([1]; multiple bid dosing, morning trough plasma concentrations): ≤ 2 days
plasma trough (12 hours postdose) lower than peak levels ([1]; repeated bid dosing ≥50 mg, steady state): up to 61 fold
increase in AUC with ninefold increase in dose ([1]; single doses 200–1800 mg): 24 fold
SMILES: CCCOc1ccc([C@H]2CNC(=O)N2c2ccc3[nH]cnc3c2)cc1 [PQ912]
QC activity in serum (QC activity in serum): inhibited in a dose-related manner; also recorded: decreased in a dose-related manner
